Data from article PMC6002448, “Evaluation of the effect of the new methoxy-stilbenes on expression of receptors and enzymes involved in estrogen synthesis in cancer breast cells” (Molecular and Cellular Biochemistry, 2017).

Target: T1, CYP19 (aromatase) (Homo sapiens, UniProt P11511)
T1 construct: gene CYP19A1; human recombinant CYP19
T1 sequence (P11511 1-503): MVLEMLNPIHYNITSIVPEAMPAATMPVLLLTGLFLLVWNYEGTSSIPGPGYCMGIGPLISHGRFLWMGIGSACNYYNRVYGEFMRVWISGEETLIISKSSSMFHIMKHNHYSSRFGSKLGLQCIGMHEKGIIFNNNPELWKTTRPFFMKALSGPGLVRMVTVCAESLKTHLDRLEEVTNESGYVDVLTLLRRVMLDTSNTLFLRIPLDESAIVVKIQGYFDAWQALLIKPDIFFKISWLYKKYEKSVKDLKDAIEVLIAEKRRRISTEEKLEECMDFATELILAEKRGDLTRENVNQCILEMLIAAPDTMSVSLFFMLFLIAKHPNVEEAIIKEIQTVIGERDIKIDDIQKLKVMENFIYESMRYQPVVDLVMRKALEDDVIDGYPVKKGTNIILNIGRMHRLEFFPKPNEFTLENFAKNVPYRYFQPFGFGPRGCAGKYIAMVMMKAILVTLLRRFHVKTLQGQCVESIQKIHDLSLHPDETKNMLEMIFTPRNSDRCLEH
Assay: fluorometric CYP19/MFC inhibitor screening kit (recombinant enzyme)
Type: biochemical

COc1ccccc1/C=C/c1ccc(OC)c(OC)c1 [3MS, 3,4,2′-trimethoxy-trans-stilbene] showed an IC50 of ~85 µM.
